Reference: patent US10670605B2, “Cysteine reactive probes and uses thereof” (The Scripps Research Institute, priority 2015, dated 2020)
Several values for one entry are separate records, joined by “and”; a condition that tells them apart may be missing. Equal values may be shown once. One block for each compound: values may come before it.

Biological target: T1, USP28 C171 (Q96RU2) (Homo sapiens, UniProt Q96RU2)
T1 sequence (Q96RU2 1-1077): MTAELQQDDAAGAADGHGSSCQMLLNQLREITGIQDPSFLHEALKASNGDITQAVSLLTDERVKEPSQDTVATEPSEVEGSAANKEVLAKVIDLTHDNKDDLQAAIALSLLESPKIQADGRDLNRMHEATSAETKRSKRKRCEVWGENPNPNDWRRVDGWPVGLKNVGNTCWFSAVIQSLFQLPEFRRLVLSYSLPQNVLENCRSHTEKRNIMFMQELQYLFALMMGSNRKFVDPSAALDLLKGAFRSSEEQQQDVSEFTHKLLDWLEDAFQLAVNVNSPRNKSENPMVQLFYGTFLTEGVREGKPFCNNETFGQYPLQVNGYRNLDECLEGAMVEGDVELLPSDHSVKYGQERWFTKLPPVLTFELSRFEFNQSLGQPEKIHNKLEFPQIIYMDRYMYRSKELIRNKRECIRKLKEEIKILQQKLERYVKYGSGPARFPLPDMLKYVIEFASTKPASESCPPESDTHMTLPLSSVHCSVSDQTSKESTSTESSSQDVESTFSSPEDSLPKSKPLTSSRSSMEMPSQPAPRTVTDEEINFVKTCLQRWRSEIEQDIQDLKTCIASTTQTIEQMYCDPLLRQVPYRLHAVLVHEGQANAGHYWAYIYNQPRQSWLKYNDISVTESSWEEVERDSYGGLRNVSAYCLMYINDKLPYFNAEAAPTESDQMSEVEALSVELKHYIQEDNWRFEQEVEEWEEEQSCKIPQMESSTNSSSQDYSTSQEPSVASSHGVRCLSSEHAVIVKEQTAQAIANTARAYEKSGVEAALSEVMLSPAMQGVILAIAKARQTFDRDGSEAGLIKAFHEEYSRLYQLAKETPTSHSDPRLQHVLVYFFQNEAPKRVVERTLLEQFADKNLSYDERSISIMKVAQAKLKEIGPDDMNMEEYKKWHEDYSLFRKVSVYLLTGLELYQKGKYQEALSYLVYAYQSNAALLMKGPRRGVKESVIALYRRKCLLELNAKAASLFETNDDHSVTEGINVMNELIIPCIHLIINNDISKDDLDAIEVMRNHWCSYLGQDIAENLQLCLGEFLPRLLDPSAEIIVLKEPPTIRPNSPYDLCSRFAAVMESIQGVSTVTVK
Assay: Competitive isoTOP-ABPP, cell lysates
Format: binding
Settings: for R value (DMSO/fragment) / isoTOP-ABPP ratio, Q96RU2_C171: 500 μM, invitro

SMILES: COc1ccc2c(c1)CCCN2C(=O)CCl [compound 2]
R value (DMSO/fragment) (ramos): 1.1

SMILES: O=C(CCl)Nc1cc(C(F)(F)F)cc(C(F)(F)F)c1 [compound 3]
R value (DMSO/fragment) (ramos): 1.7

SMILES: CNS(=O)(=O)C=Cc1ccc2c(ccn2Cc2ccccc2)c1 [compound 6]
isoTOP-ABPP ratio, Q96RU2_C171 231: 0.8

SMILES: O=C(CCl)N1CCN(S(=O)(=O)c2ccccc2F)CC1 [compound 10]
isoTOP-ABPP ratio, Q96RU2_C171 231: 1.4

SMILES: Cn1cc(S(=O)(=O)N2CCOCC2)cc1C(=O)NC(=O)CCl [compound 11]
isoTOP-ABPP ratio, Q96RU2_C171 231: 20.0

SMILES: O=C(CCl)N1CCC(C(O)(c2ccccc2)c2ccccc2)CC1 [compound 20]
isoTOP-ABPP ratio (reactivity profile), Q96RU2_C171 (500 μm in-vitro ramos): 2.4

Now from value to compound:

isoTOP-ABPP ratio, Q96RU2_C171 (ramos): 2.4
SMILES: O=C(CCl)NCCc1c[nH]c2ccccc12 [compound 13]

isoTOP-ABPP ratio (reactivity profile), Q96RU2_C171 (500 μm in-vitro ramos_231): 1.1
SMILES: O=C(CCl)NC12CC3CC(CC(C3)C1)C2 [compound 21]

isoTOP-ABPP ratio (reactivity profile), Q96RU2_C171 (500 μm in-vitro ramos): 1.2
SMILES: N#C/C(=C\c1cc(C(F)(F)F)cc(C(F)(F)F)c1)C(N)=O [compound 23]

isoTOP-ABPP ratio (reactivity profile), Q96RU2_C171 (500 μm in-vitro ramos_231): 0.9 and 1.2
SMILES: CC(C)CCOCCNC(=O)CCl [compound 27]

isoTOP-ABPP reactivity ratio, Q96RU2_C171 (500 μm, in-vitro_ramos_231): 3.3
SMILES: C=CC(=O)Nc1cc(F)c(N2CCN(C(=O)OC(C)(C)C)CC2)c(F)c1 [compound 38]

isoTOP-ABPP reactivity profile ratio, Q96RU2_C171 (500 μm, in-vitro_ramos_231): 0.9
SMILES: C=CC(=O)N(c1ccccc1)C1CCCCC1 [compound 46]
